Common to all, as to type: biochemical
One experiment has as its target LRRK2 (Homo sapiens, UniProt Q5S007). Put plainly: LRRK2 enzyme inhibition, ADP-Glo kinase assay. More on the design: purchased Invitrogen PR8604B. The method, boiled down: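 Purified human LRRK2 (25 ng) in 40 mM Tris-HCl pH7.4, 20 mM MgCl2, 0.5 mg/ml BSA, 50 μM DTT with 10 μM ATP and substrate ([…]), 2 h at 25° C. Final compound 50 to 0.000001024 μM, 12-point dilution. ADP-Glo luminescence vs solvent control; IC50 (nM).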
For orientation: ADP-Glo turns the ADP formed in a reaction into a luminescent signal.

A further experiment concerns the target T1, human GST-CLK1 (129-end) (Homo sapiens, UniProt P49759).
T1 construct: purified human GST-CLK1 (129-end, Signalchem) enzyme; GST; purchased Signalchem
Put plainly: GST-CLK1 enzyme inhibition, ADP-Glo kinase assay. Particulars: ATP 10 uM. The method, boiled down: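 GST-CLK1 (129-end, 3 ng) reacted with 10 uM ATP and substrate in 40 mM Tris-HCl pH 7.4, 20 mM MgCl2, 0.5 mg/mL BSA, 50 uM DTT, 1 h at 25° C. ADP-Glo luminescence normalised to solvent control; IC50 from triplicate data.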

Experiment [1] has as its target T2, human GST-DYRK1A (full length) (Homo sapiens, UniProt Q13627).
T2 construct: purified human GST-DYRK1A (full length, Thermo scientifics) enzyme; GST; purchased Thermo scientifics
Kind of experiment: GST-DYRK1A enzyme inhibition, ADP-Glo kinase assay. Particulars: read-out: DYRK1 IC50. Put shortly: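 Full-length human GST-DYRK1A (10 ng) incubated with 10 uM ATP and specific substrate for 1 h at 25° C in 40 mM Tris-HCl pH 7.4, 20 mM MgCl2, 0.5 mg/mL BSA, 50 uM DTT. ADP formation read by ADP-Glo luminescence; IC50 (nM) versus solvent control, triplicate.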

The target in another experiment is LRRK2 (G2019S) (Homo sapiens, UniProt Q5S007, G2019S). Put plainly: LRRK2 G2019S enzyme inhibition, ADP-Glo kinase assay. More on the design: purchased SignalChem L10-12GG. Put shortly: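 Purified human LRRK2 G2019S (16 ng) with 25 μM ATP and 0.2 μg substrate, 2 h at 25° C in 40 mM Tris-HCl pH 7.4, 20 mM MgCl2, 0.5 mg/ml BSA, 50 μM DTT; compound at 12 final concentrations from 50 μM downward. ADP-Glo luminescence versus solvent control gave IC50 (nM).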
LRRK2 (G2019S), sequence (Q5S007 970-2527 G2019S limits assumed): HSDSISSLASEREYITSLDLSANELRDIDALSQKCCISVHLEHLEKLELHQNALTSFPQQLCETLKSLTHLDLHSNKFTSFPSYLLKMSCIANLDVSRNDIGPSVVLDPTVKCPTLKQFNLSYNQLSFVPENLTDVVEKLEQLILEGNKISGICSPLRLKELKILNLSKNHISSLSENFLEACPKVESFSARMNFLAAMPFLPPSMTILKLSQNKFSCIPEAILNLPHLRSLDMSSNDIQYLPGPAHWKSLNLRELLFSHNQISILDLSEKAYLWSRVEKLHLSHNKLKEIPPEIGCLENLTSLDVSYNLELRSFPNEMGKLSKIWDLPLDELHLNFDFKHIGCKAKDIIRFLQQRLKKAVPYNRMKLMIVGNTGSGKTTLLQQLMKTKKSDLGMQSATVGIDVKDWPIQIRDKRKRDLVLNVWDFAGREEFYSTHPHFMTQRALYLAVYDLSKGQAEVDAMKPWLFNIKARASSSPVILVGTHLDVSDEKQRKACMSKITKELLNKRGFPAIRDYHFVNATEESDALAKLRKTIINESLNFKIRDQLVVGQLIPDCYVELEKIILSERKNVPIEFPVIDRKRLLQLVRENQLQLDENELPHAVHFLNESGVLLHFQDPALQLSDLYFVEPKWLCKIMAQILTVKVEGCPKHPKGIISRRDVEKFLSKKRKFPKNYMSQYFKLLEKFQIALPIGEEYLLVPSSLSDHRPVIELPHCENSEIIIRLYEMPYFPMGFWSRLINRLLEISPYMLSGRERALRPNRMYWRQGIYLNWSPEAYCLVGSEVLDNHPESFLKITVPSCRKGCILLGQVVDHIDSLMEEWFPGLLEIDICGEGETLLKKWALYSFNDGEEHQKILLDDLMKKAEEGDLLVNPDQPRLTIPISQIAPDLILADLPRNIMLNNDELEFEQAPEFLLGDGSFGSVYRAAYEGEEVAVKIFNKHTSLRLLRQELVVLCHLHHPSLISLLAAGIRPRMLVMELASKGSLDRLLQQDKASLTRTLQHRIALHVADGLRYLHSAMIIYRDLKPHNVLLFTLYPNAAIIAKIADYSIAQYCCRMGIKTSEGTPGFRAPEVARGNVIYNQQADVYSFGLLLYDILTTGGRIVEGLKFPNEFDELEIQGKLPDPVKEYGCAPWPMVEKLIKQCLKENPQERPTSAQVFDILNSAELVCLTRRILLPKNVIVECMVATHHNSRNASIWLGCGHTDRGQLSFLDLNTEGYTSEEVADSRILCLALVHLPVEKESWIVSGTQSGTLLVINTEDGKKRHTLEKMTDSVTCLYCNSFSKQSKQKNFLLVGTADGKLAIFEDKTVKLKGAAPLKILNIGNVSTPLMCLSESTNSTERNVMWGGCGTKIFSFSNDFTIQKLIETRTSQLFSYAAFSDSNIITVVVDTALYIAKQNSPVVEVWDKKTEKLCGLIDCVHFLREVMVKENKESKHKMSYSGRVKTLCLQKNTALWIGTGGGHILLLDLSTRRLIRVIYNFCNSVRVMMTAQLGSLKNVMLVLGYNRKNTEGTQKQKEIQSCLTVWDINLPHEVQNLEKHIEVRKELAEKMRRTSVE

T1 sequence (P49759 129-484 limits assumed): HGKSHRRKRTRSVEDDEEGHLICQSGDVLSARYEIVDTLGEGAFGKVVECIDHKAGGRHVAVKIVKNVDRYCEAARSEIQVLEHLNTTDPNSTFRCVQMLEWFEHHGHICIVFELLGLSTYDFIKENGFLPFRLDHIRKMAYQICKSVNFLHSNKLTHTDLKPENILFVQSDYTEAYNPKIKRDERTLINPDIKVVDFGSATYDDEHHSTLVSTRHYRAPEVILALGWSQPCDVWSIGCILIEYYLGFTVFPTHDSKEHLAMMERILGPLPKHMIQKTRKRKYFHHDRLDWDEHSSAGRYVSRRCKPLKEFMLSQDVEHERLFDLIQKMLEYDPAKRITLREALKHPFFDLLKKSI
LRRK2, sequence (Q5S007 970-2527 limits assumed): as the sequence (Q5S007 970-2527 G2019S limits assumed) above, with S1050G counted along it

On to `N#Cc1c[nH]c2nc(Nc3ccc(C(=O)N4CCOCC4)c4c3OCCO4)cc(NC3CC3)c12` [Example 111, 4-(cyclopropylamino)-6-((8-(morpholine-4-carbonyl)-2,3-dihydrobenzo[b] [1,4]dioxin-5-yl)amino)-1H-pyrrolo[2,3-b]pyridine-3-carbonitrile], for which the IC50 (commonly the point on the concentration scale where inhibition reaches its midpoint) against LRRK2 is less than 100 nM; against human GST-CLK1 (129-end) it was 101 to 300 nM; in experiment [1], 301 to 1000 nM; on LRRK2 (G2019S), less than 100 nM.
Regarding `CCNc1cc(Nc2ccc(C(=O)N3CCC(N4CCOCC4)CC3)c3c2OCCO3)nc2[nH]cc(C#N)c12` [Example 113, 4-(ethylamino)-6-((8-(4-morpholinopiperidine-1-carbonyl)-2,3-dihydrobenzo [b] [1,4]dioxin-5-yl)amino)-1H-pyrrolo[2,3-b]pyridine-3-carbonitrile], the IC50 is less than 100 nM at LRRK2, less than 100 nM against human GST-CLK1 (129-end), 301 to 1000 nM in experiment [1] and less than 100 nM against LRRK2 (G2019S).
Take `CCCNc1cc(Nc2ccc(C(=O)N3CCC(N4CCOCC4)CC3)c3c2OCCO3)nc2[nH]cc(C#N)c12` [Example 114, 6-((8-(4-morpholinopiperidine-1-carbonyl)-2,3-dihydrobenzo [b] [1,4]dioxin-5-yl)amino)-4-(propylamino)-1H-pyrrolo[2,3-b]pyridine-3-carbonitrile]: the IC50 (against LRRK2; at human GST-CLK1 (129-end); in experiment [1]; on LRRK2 (G2019S)) was less than 100 nM in each case.
With `CNc1cc(Nc2ccc(C(=O)N3CCC(N4CCOCC4)CC3)c3c2OCCO3)nc2[nH]cc(C#N)c12` [Example 115, 4-(methylamino)-6-((8-(4-morpholinopiperidine-1-carbonyl)-2,3-dihydrobenzo[b] [1,4]dioxin-5-yl)amino)-1H-pyrrolo[2,3-b]pyridine-3-carbonitrile], the IC50 was less than 100 nM at LRRK2, 101 to 300 nM at human GST-CLK1 (129-end), 101 to 300 nM in experiment [1] and less than 100 nM at LRRK2 (G2019S).
For `N#Cc1c[nH]c2nc(Nc3ccc(C(=O)N4CCC(N5CCOCC5)CC4)c4c3OCCO4)cc(NC3CC3)c12` [Example 116, 4-(cyclopropylamino)-6-((8-(4-morpholinopiperidine-1-carbonyl)-2,3-dihydrobenzo [b] [1,4]dioxin-5-yl)amino)-1H-pyrrolo[2,3-b]pyridine-3-carbonitrile], the IC50 at LRRK2 was less than 100 nM; at human GST-CLK1 (129-end), 101 to 300 nM; in experiment [1], 301 to 1000 nM; against LRRK2 (G2019S), less than 100 nM.
As for `N#Cc1c[nH]c2nc(Nc3ccc(C(=O)N4CCC(N5CCOCC5)CC4)c4c3OCCO4)cc(NC3CCC3)c12` [Example 117, 4-(cyclobutylamino)-6-((8-(4-morpholinopiperidine-1-carbonyl)-2,3-dihydrobenzo[b] [1,4]dioxin-5-yl)amino)-1H-pyrrolo[2,3-b]pyridine-3-carbonitrile], the IC50 on LRRK2 is less than 100 nM; against human GST-CLK1 (129-end), less than 100 nM; in experiment [1], 301 to 1000 nM; at LRRK2 (G2019S), less than 100 nM.
For the molecule `COCCNc1cc(Nc2ccc(C(=O)N3CCC(N4CCOCC4)CC3)c3c2OCCO3)nc2[nH]cc(C#N)c12` [Example 118, 4-((2-methoxyethyl)amino)-6-((8-(4-morpholinopiperidine-1-carbonyl)-2,3-dihydrobenzo [b] [1,4]dioxin-5-yl)amino)-1H-pyrrolo[2,3-b]pyridine-3-carbonitrile], the IC50 against LRRK2 is less than 100 nM; against human GST-CLK1 (129-end) it was less than 100 nM; in experiment [1] it was 301 to 1000 nM; against LRRK2 (G2019S) it was less than 100 nM.
On to `COc1cc(S(C)(=O)=O)ccc1Nc1cc(NCCS(C)(=O)=O)c2c(C#N)c[nH]c2n1` [Example 119, 6-((2-methoxy-4-(methylsulfonyl)phenyl)amino)-4-((2-(methylsulfonyl)ethyl)amino)-1H-pyrrolo[2,3-b]pyridine-3-carbonitrile], for which the half-inhibitory concentration (IC50) was less than 100 nM on LRRK2, 301 to 1000 nM on human GST-CLK1 (129-end), 301 to 1000 nM in experiment [1] and less than 100 nM at LRRK2 (G2019S).
On to `COc1cc(S(C)(=O)=O)ccc1Nc1cc(NC2CCC2)c2c(C#N)c[nH]c2n1` [Example 120, 4-(cyclobutylamino)-6-((2-methoxy-4-(methylsulfonyl)phenyl)amino)-1H-pyrrolo[2,3-b]pyridine-3-carbonitrile], for which the half-inhibitory concentration (IC50) is less than 100 nM at LRRK2, 301 to 1000 nM against human GST-CLK1 (129-end), 301 to 1000 nM in experiment [1] and 101 to 300 nM on LRRK2 (G2019S).
`COc1cc(S(C)(=O)=O)ccc1Nc1cc(NC2CCCC2)c2c(C#N)c[nH]c2n1` [Example 121, 4-(cyclopentylamino)-6-((2-methoxy-4-(methylsulfonyl)phenyl)amino)-1H-pyrrolo[2,3-b]pyridine-3-carbonitrile]: the IC50 against LRRK2 is less than 100 nM; on human GST-CLK1 (129-end) it was 301 to 1000 nM; in experiment [1] it was 301 to 1000 nM; on LRRK2 (G2019S) it was 301 to 1000 nM.
For the molecule `COc1cc(S(C)(=O)=O)ccc1Nc1cc(NC2CC2)c2c(C#N)c[nH]c2n1` [Example 122, 4-(cyclopropylamino)-6-((2-methoxy-4-(methylsulfonyl)phenyl)amino)-1H-pyrrolo[2,3-b]pyridine-3-carbonitrile], the IC50 is less than 100 nM against LRRK2, 301 to 1000 nM at human GST-CLK1 (129-end), 301 to 1000 nM in experiment [1] and 101 to 300 nM at LRRK2 (G2019S).
For `CNc1cc(Nc2ccc(S(C)(=O)=O)cc2OC)nc2[nH]cc(C#N)c12` [Example 123], the IC50 against LRRK2 was less than 100 nM; against human GST-CLK1 (129-end), 301 to 1000 nM; in experiment [1] it was 301 to 1000 nM; against LRRK2 (G2019S), less than 100 nM.
Turning to `CCNc1cc(Nc2ccc(S(C)(=O)=O)cc2OC)nc2[nH]cc(C#N)c12` [Example 124, 4-(ethylamino)-6-((2-methoxy-4-(methylsulfonyl)phenyl)amino)-1H-pyrrolo[2,3-b]pyridine-3-carbonitrile], the IC50 against LRRK2 is less than 100 nM; against human GST-CLK1 (129-end), 301 to 1000 nM; in experiment [1], 301 to 1000 nM; on LRRK2 (G2019S), 101 to 300 nM.
As for `CCCNc1cc(Nc2ccc(S(C)(=O)=O)cc2OC)nc2[nH]cc(C#N)c12` [Example 125, 6-((2-methoxy-4-(methylsulfonyl)phenyl)amino)-4-(propylamino)-1H-pyrrolo[2,3-b]pyridine-3-carbonitrile], the IC50 was less than 100 nM against LRRK2, 301 to 1000 nM on human GST-CLK1 (129-end), 301 to 1000 nM in experiment [1] and 101 to 300 nM against LRRK2 (G2019S).
Turning to `COCCNc1cc(Nc2ccc(S(C)(=O)=O)cc2OC)nc2[nH]cc(C#N)c12` [Example 126, 6-((2-methoxy-4-(methylsulfonyl)phenyl)amino)-4-((2-methoxyethyl)amino)-1H-pyrrolo[2,3-b]pyridine-3-carbonitrile], the IC50 at LRRK2 is less than 100 nM; against human GST-CLK1 (129-end), 301 to 1000 nM; in experiment [1], 301 to 1000 nM; at LRRK2 (G2019S) it was less than 100 nM.
Turning to `O=C(c1ccc(Nc2cc(NC3CCCCC3)c3c(C(F)(F)F)c[nH]c3n2)c2c1OCCO2)N1CCOCC1` [Example 154, (8-((4-(cyclohexylamino)-3-(trifluoromethyl)-1H-pyrrolo[2,3-b]pyridin-6-yl)amino)-2,3-dihydrobenzo[b] [1,4]dioxin-5-yl)(morpholino) methanone], the IC50 (against LRRK2; against human GST-CLK1 (129-end); in experiment [1]; against LRRK2 (G2019S)) was 301 to 1000 nM each time.
As for `O=C(c1ccc(Nc2cc(NC3CC3)c3c(C(F)(F)F)c[nH]c3n2)c2c1OCCO2)N1CCOCC1` [Example 155, (8-((4-(cyclopropylamino)-3-(trifluoromethyl)-1H-pyrrolo[2,3-b]pyridin-6-yl)amino)-2,3-dihydrobenzo[b] [1,4]dioxin-5-yl)(morpholino) methanone 2,2,2-trifluoroacetate], the half-inhibitory concentration (IC50) on LRRK2 was less than 100 nM; at human GST-CLK1 (129-end), less than 100 nM; in experiment [1], 301 to 1000 nM; against LRRK2 (G2019S), 101 to 300 nM.
Turning to `CC(C)CNc1cc(Nc2ccc(C(=O)N3CCOCC3)c3c2OCCO3)nc2[nH]cc(C(F)(F)F)c12` [Example 156, (8-((4-(isobutylamino)-3-(trifluoromethyl)-1H-pyrrolo[2,3-b]pyridin-6-yl)amino)-2,3-dihydrobenzo[b] [1,4]dioxin-5-yl)(morpholino) methanone], the IC50 on LRRK2 is less than 100 nM; on human GST-CLK1 (129-end) it was 301 to 1000 nM; in experiment [1], 301 to 1000 nM; against LRRK2 (G2019S), 301 to 1000 nM.
Consider `COCCNc1cc(Nc2ccc(C(=O)N3CCOCC3)c3c2OCCO3)nc2[nH]cc(C(F)(F)F)c12` [Example 158, (8-((4-((2-methoxyethyl)amino)-3-(trifluoromethyl)-1H-pyrrolo[2,3-b]pyridin-6-yl)amino)-2,3-dihydrobenzo[b] [1,4]dioxin-5-yl)(morpholino) methanone], for which the IC50 (on LRRK2; against human GST-CLK1 (129-end); in experiment [1]; against LRRK2 (G2019S)) was less than 100 nM throughout.

The values are drawn from patent publication US12240844B2 (Voronoi, Inc., priority 2019, dated 2025).
